Legend:
Assay type in all cases: functional
[1] = tested on: UACC-62; assay: Cytotoxicity against human UACC62 cells assessed as cell growth at 100 uM after 48 hrs by sulforhodamine B assay relative to control; conditions: UACC-62, 48 h, read-out: Activity
[2] = tested on: NCI-H322M; assay: Cytotoxicity against human NCI-H322M cells assessed as cell growth at 0.1 uM after 48 hrs by sulforhodamine B assay relative to control; conditions: read-out: Activity
[3] = tested on: T47D; assay: Cytotoxicity against human T47D cells assessed as growth inhibition after 48 hrs by sulforhodamine B assay
[4] = tested on: HOP-62; assay: Cytotoxicity against human HOP62 cells assessed as cell growth at 0.01 uM after 48 hrs by sulforhodamine B assay relative to control; conditions: HOP-62, 48 h, read-out: Activity
[5] = tested on: SNB-19; assay: Cytotoxicity against human SNB19 cells assessed as cell growth at 0.1 uM after 48 hrs by sulforhodamine B assay relative to control; conditions: SNB-19, 48 h, read-out: Activity
[6] = tested on: MDA-MB-435; assay: Cytotoxicity against human MDA-MB-435 cells assessed as growth inhibition after 48 hrs by sulforhodamine B assay; conditions: MDA-MB-435, 48 h
[7] = tested on: NCI-H226; assay: Cytotoxicity against human NCI-H226 cells assessed as cell growth at 1 uM after 48 hrs by sulforhodamine B assay relative to control; conditions: NCI-H226, 48 h, read-out: Activity
[8] = tested on: MCF7; assay: Cytotoxicity against human MCF7 cells assessed as growth inhibition after 48 hrs by sulforhodamine B assay; conditions: MCF7, 48 h
[9] = tested on: CCRF-CEM; assay: Cytotoxicity against human CCRF-CEM cells assessed as cell growth at 0.1 uM after 48 hrs by sulforhodamine B assay relative to control; conditions: read-out: Activity
[10] = tested on: HCT-15; assay: Cytotoxicity against human HCT15 cells assessed as cell growth at 100 uM after 48 hrs by sulforhodamine B assay relative to control; conditions: HCT-15, 48 h, read-out: Activity
[11] = tested on: PC-3; assay: Cytotoxicity against human PC3 cells assessed as cell growth at 1 uM after 48 hrs by sulforhodamine B assay relative to control; conditions: PC-3, 48 h, read-out: Activity
[12] = tested on: HOP-62; assay: Cytotoxicity against human HOP62 cells assessed as cell growth at 1 uM after 48 hrs by sulforhodamine B assay relative to control; conditions: HOP-62, 48 h, read-out: Activity
[13] = tested on: OVCAR-4; assay: Cytotoxicity against human OVCAR4 cells assessed as cell growth at 0.01 uM after 48 hrs by sulforhodamine B assay relative to control; conditions: OVCAR-4, 48 h, read-out: Activity
[14] = tested on: HCC 2998; assay: Cytotoxicity against human HCC2998 cells assessed as cell growth at 1 uM after 48 hrs by sulforhodamine B assay relative to control; conditions: HCC 2998, 48 h, read-out: Activity
[15] = tested on: A498; assay: Cytotoxicity against human A498 cells assessed as growth inhibition after 48 hrs by sulforhodamine B assay; conditions: A498, 48 h
[16] = tested on: SN12C; assay: Cytotoxicity against human SN12C cells assessed as growth inhibition after 48 hrs by sulforhodamine B assay
[17] = tested on: SW-620; assay: Cytotoxicity against human SW620 cells assessed as growth inhibition after 48 hrs by sulforhodamine B assay; conditions: SW-620, 48 h
[18] = tested on: A498; assay: Cytotoxicity against human A498 cells assessed as cell growth at 0.1 uM after 48 hrs by sulforhodamine B assay relative to control; conditions: A498, 48 h, read-out: Activity
[19] = tested on: T47D; assay: Cytotoxicity against human T47D cells assessed as cell growth at 1 uM after 48 hrs by sulforhodamine B assay relative to control; conditions: read-out: Activity
[20] = tested on: Hs-578T; assay: Cytotoxicity against human Hs 578T cells assessed as cell growth at 100 uM after 48 hrs by sulforhodamine B assay relative to control; conditions: read-out: Activity
[21] = tested on: Hs-578T; assay: Cytotoxicity against human Hs 578T cells assessed as growth inhibition after 48 hrs by sulforhodamine B assay
[22] = tested on: LOX IMVI; assay: Cytotoxicity against human LOXIMVI cells assessed as growth inhibition after 48 hrs by sulforhodamine B assay
[23] = tested on: 786-0; assay: Cytotoxicity against human 786-0 cells assessed as cell growth at 10 uM after 48 hrs by sulforhodamine B assay relative to control; conditions: 786-0, 48 h, read-out: Activity
[24] = tested on: SW-620; assay: Cytotoxicity against human SW620 cells assessed as cell growth at 10 uM after 48 hrs by sulforhodamine B assay relative to control; conditions: SW-620, 48 h, read-out: Activity
[25] = tested on: HCT-116; assay: Cytotoxicity against human HCT116 cells assessed as cell growth at 0.01 uM after 48 hrs by sulforhodamine B assay relative to control; conditions: HCT-116, 48 h, read-out: Activity
[26] = tested on: MDA-MB-231; assay: Cytotoxicity against human MDA-MB-231 cells assessed as cell growth at 0.01 uM after 48 hrs by sulforhodamine B assay relative to control; conditions: MDA-MB-231, 48 h, read-out: Activity
[27] = tested on: SK-MEL-5; assay: Cytotoxicity against human SK-MEL-5 cells assessed as cell growth at 10 uM after 48 hrs by sulforhodamine B assay relative to control; conditions: SK-MEL-5, 48 h, read-out: Activity
[28] = tested on: HCT-15; assay: Cytotoxicity against human HCT15 cells assessed as cell growth at 10 uM after 48 hrs by sulforhodamine B assay relative to control; conditions: HCT-15, 48 h, read-out: Activity
[29] = tested on: OVCAR-5; assay: Cytotoxicity against human OVCAR5 cells assessed as cell growth at 1 uM after 48 hrs by sulforhodamine B assay relative to control; conditions: OVCAR-5, 48 h, read-out: Activity
[30] = tested on: NCI-H322M; assay: Cytotoxicity against human NCI-H322M cells assessed as cell growth at 100 uM after 48 hrs by sulforhodamine B assay relative to control; conditions: read-out: Activity
[31] = tested on: HCC 2998; assay: Cytotoxicity against human HCC2998 cells assessed as growth inhibition after 48 hrs by sulforhodamine B assay; conditions: HCC 2998, 48 h
[32] = tested on: SN12C; assay: Cytotoxicity against human SN12C cells assessed as cell growth at 0.01 uM after 48 hrs by sulforhodamine B assay relative to control; conditions: read-out: Activity
[33] = tested on: HCT-116; assay: Cytotoxicity against human HCT116 cells assessed as cell growth at 10 uM after 48 hrs by sulforhodamine B assay relative to control; conditions: HCT-116, 48 h, read-out: Activity
[34] = tested on: A498; assay: Cytotoxicity against human A498 cells assessed as cell growth at 100 uM after 48 hrs by sulforhodamine B assay relative to control; conditions: A498, 48 h, read-out: Activity
[35] = tested on: MCF7; assay: Cytotoxicity against human MCF7 cells assessed as cell growth at 100 uM after 48 hrs by sulforhodamine B assay relative to control; conditions: MCF7, 48 h, read-out: Activity
[36] = tested on: NCI/ADR-RES; assay: Cytotoxicity against human NCI/ADR-RES cells assessed as growth inhibition after 48 hrs by sulforhodamine B assay
[37] = tested on: NCI/ADR-RES; assay: Cytotoxicity against human NCI/ADR-RES cells assessed as cell growth at 1 uM after 48 hrs by sulforhodamine B assay relative to control; conditions: read-out: Activity

COc1ccc(C(=O)/C=C/c2cc(-c3ccc4c(c3)OCO4)n[nH]2)cc1OC
growth at 100 µM [1]: -94% | growth at 0.1 µM [2]: 88% | GI50 [3]: 3.23 µM | LC50 [3]: > 100 µM | TGI [3]: 26.1 µM | growth at 0.01 µM [4]: 95% | growth at 0.1 µM [5]: 89% | LC50 [6]: 99 µM | TGI [6]: 10 µM | growth at 1 µM [7]: 106% | GI50 [8]: 3.27 µM | LC50 [8]: > 100 µM | TGI [8]: 16.8 µM | growth at 0.1 µM [9]: 99% | growth at 100 µM [10]: 2% | growth at 1 µM [11]: 74% | growth at 1 µM [12]: 87% | growth at 0.01 µM [13]: 96% | growth at 1 µM [14]: 104% | LC50 [15]: 13.9 µM | TGI [15]: 4.23 µM | LC50 [16]: 53.7 µM | TGI [16]: 13.6 µM | LC50 (lethal concentration, 50% net cell kill) [17]: 15.9 µM | TGI [17]: 4.81 µM | growth at 0.1 µM [18]: 80% | growth at 1 µM [19]: 79% | growth at 100 µM [20]: -5% | GI50 [21]: 2.69 µM | LC50 [21]: > 100 µM | TGI [21]: 8.21 µM | LC50 [22]: 8.46 µM | TGI [22]: 4.08 µM | growth at 10 µM [23]: 5% | growth at 10 µM [24]: -43% | growth at 0.01 µM [25]: 105% | growth at 0.01 µM [26]: 102% | growth at 10 µM [27]: 41% | growth at 10 µM [28]: 6% | growth at 1 µM [29]: 86% | growth at 100 µM [30]: -90% | LC50 [31]: 48.1 µM | TGI [31]: 17.3 µM | growth at 0.01 µM [32]: 92% | growth at 10 µM [33]: -9% | growth at 100 µM [34]: -93% | growth at 100 µM [35]: -48%

COc1ccc(-c2cc(/C=C/C(=O)c3ccc4c(c3)OCO4)[nH]n2)cc1OC
GI50 [3]: 1.36 µM | GI50 [6]: 1.72 µM | GI50 [8]: 0.93 µM | GI50 [15]: 1.27 µM | GI50 [16]: 4.96 µM | GI50 [17]: 1.5 µM | GI50 [21]: 3.76 µM | GI50 [22]: 1.29 µM | GI50 [31]: 1.74 µM | GI50 [36]: 3.43 µM

COc1cc(-c2cc(/C=C/C(=O)c3ccc(Cl)c(Cl)c3)[nH]n2)cc(OC)c1OC
growth at 100 µM [1]: 14% | growth at 0.1 µM [2]: 92% | LC50 [3]: > 100 µM | TGI [3]: 15.7 µM | growth at 0.01 µM [4]: 99% | growth at 0.1 µM [5]: 92% | LC50 [6]: > 100 µM | TGI [6]: > 100 µM | growth at 1 µM [7]: 96% | LC50 [8]: > 100 µM | TGI [8]: > 100 µM | growth at 0.1 µM [9]: 98% | growth at 1 µM [11]: 87% | growth at 1 µM [37]: 92% | growth at 1 µM [12]: 68% | growth at 0.01 µM [13]: 92% | growth at 1 µM [14]: 102% | LC50 [15]: > 100 µM | TGI [15]: 43 µM | LC50 [16]: > 100 µM | TGI [16]: > 100 µM | LC50 (lethal concentration, 50% net cell kill) [17]: > 100 µM | TGI [17]: 79.6 µM | growth at 0.1 µM [18]: 89% | growth at 1 µM [19]: 62% | growth at 100 µM [20]: 3% | LC50 [21]: > 100 µM | TGI [21]: > 100 µM | LC50 [22]: 78.4 µM | TGI [22]: 16.4 µM | growth at 10 µM [23]: 50% | growth at 10 µM [24]: 47% | growth at 0.01 µM [25]: 102% | growth at 0.01 µM [26]: 103% | growth at 10 µM [27]: 62% | growth at 10 µM [28]: 29% | growth at 1 µM [29]: 92% | growth at 100 µM [30]: 5% | LC50 [31]: > 100 µM | TGI [31]: 31.4 µM | growth at 0.01 µM [32]: 98% | growth at 10 µM [33]: 16% | growth at 100 µM [34]: -25% | LC50 [36]: > 100 µM | TGI [36]: > 100 µM

— ChEMBL document CHEMBL4138123, “Design, synthesis and biological evaluation of novel pyrazolochalcones as potential modulators of PI3K/Akt/mTOR pathway and inducers of apoptosis in breast cancer cells” (Eur J Med Chem, 2017)
